Experimental data: the supplement of paper PMC10627819

Tests used:
Experiment in all cases: fitness (endpoint OD595 vs no drug) (fraction); higher = more growth
[1] = tested on: S. pneumoniae D39V
Procedure, shortened: (§1)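 In 384-well plates at 37 °C, cultures began at OD595 0.01 in 30 µl, with 55 µl used for S. pneumoniae. OD595 readings every 30 min for 14 h were corrected by the first reading. Fitness divides the stationary-phase transition optical density by the robust mean of no-drug control wells. The result is capped at 1.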

[2] = tested on: B. subtilis 168
Procedure, shortened: as §1

[3] = tested on: S. aureus Newman; settings: one replicate
Procedure, shortened: as §1
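Further: OD595 on entry to stationary phase over no-drug wells; at most 1.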

`O=C(O)[C@H]1/C(=C/CO)O[C@@H]2CC(=O)N21` [Clavulanic acid] + C[n+]1ccc(-c2cc[n+](C)cc2)cc1 [Paraquat] was tested, and the fitness ([1]; first compound 0.5 µg/mL, partner 1.5 µg/mL) was 0.99, the fitness ([1]; first compound 0.5 µg/mL, partner 3 µg/mL) was ≥ 1 and the fitness ([1]; first compound 0.5 µg/mL, partner 6 µg/mL) was 0.991. The fitness ([1]; first compound 1 µg/mL, partner 1.5 µg/mL) was 0.973, the fitness ([1]; first compound 1 µg/mL, partner 3 µg/mL) was 0.962 and the fitness ([1]; first compound 1 µg/mL, partner 6 µg/mL) was 0.941. It also gave a fitness ([1]; first compound 2 µg/mL, partner 1.5 µg/mL) of 0.875, a fitness ([1]; first compound 2 µg/mL, partner 3 µg/mL) of 0.896 and a fitness ([1]; first compound 2 µg/mL, partner 6 µg/mL) of 0.863. It also gave a fitness ([2]; first compound 1.5 µg/mL, partner 1.25 µg/mL) of 0.93, a fitness ([2]; first compound 1.5 µg/mL, partner 2.5 µg/mL) of 0.96 and a fitness ([2]; first compound 1.5 µg/mL, partner 5 µg/mL) of 0.835. The fitness ([2]; first compound 3 µg/mL, partner 1.25 µg/mL) was 0.87, the fitness ([2]; first compound 3 µg/mL, partner 2.5 µg/mL) was 0.812 and the fitness ([2]; first compound 3 µg/mL, partner 5 µg/mL) was 0.77. The fitness ([2]; first compound 6 µg/mL, partner 1.25 µg/mL) was 0.773, the fitness ([2]; first compound 6 µg/mL, partner 2.5 µg/mL) was 0.728 and the fitness ([2]; first compound 6 µg/mL, partner 5 µg/mL) was 0.672. It also gave a fitness ([3]; first compound 0.03125 µg/mL, partner 1.25 µg/mL) of 0.952, a fitness ([3]; first compound 0.03125 µg/mL, partner 2.5 µg/mL) of 0.98 and a fitness ([3]; first compound 0.03125 µg/mL, partner 5 µg/mL) of 0.99. The fitness ([3]; first compound 0.0625 µg/mL, partner 1.25 µg/mL) was 0.99, the fitness ([3]; first compound 0.0625 µg/mL, partner 2.5 µg/mL) was 0.983 and the fitness ([3]; first compound 0.0625 µg/mL, partner 5 µg/mL) was ≥ 1. For the same compound, the fitness ([3]; first compound 0.125 µg/mL, partner 1.25 µg/mL) was 0.843, the fitness ([3]; first compound 0.125 µg/mL, partner 2.5 µg/mL) was 0.943 and the fitness ([3]; first compound 0.125 µg/mL, partner 5 µg/mL) was 0.89.

Compound `O=C(O)[C@H]1/C(=C/CO)O[C@@H]2CC(=O)N21` [Clavulanic acid] + CC(C1CCC(C(O1)OC2C(CC(C(C2O)OC3C(C(C(CO3)(C)O)NC)O)N)N)N)NC [Gentamicin] has a fitness ([1]; first compound 0.5 µg/mL, partner 2 µg/mL, main component drawn) of 0.96, a fitness ([1]; first compound 0.5 µg/mL, partner 4 µg/mL, main component drawn) of 0.955 and a fitness ([1]; first compound 0.5 µg/mL, partner 8 µg/mL, main component drawn) of 0.932. For the same compound, the fitness ([1]; first compound 1 µg/mL, partner 2 µg/mL, main component drawn) was 0.902, the fitness ([1]; first compound 1 µg/mL, partner 4 µg/mL, main component drawn) was 0.896 and the fitness ([1]; first compound 1 µg/mL, partner 8 µg/mL, main component drawn) was 0.885. The fitness ([1]; first compound 2 µg/mL, partner 2 µg/mL, main component drawn) was 0.795, the fitness ([1]; first compound 2 µg/mL, partner 4 µg/mL, main component drawn) was 0.8 and the fitness ([1]; first compound 2 µg/mL, partner 8 µg/mL, main component drawn) was 0.787. It also gave a fitness ([2]; first compound 1.5 µg/mL, partner 0.0625 µg/mL, main component drawn) of 0.884, a fitness ([2]; first compound 3 µg/mL, partner 0.0625 µg/mL, main component drawn) of 0.859 and a fitness ([2]; first compound 6 µg/mL, partner 0.0625 µg/mL, main component drawn) of 0.737. The fitness ([2]; first compound 6 µg/mL, partner 0.25 µg/mL, main component drawn) was 0.118, the fitness ([3]; first compound 0.03125 µg/mL, partner 1 µg/mL, main component drawn) was 0.92 and the fitness ([3]; first compound 0.03125 µg/mL, partner 2 µg/mL, main component drawn) was ≥ 1. The fitness ([3]; first compound 0.03125 µg/mL, partner 4 µg/mL, main component drawn) was 0.768, the fitness ([3]; first compound 0.0625 µg/mL, partner 1 µg/mL, main component drawn) was 0.947 and the fitness ([3]; first compound 0.0625 µg/mL, partner 2 µg/mL, main component drawn) was 0.893. For the same compound, the fitness ([3]; first compound 0.0625 µg/mL, partner 4 µg/mL, main component drawn) was 0.566, the fitness ([3]; first compound 0.125 µg/mL, partner 1 µg/mL, main component drawn) was 0.872 and the fitness ([3]; first compound 0.125 µg/mL, partner 2 µg/mL, main component drawn) was 0.835. The fitness ([3]; first compound 0.125 µg/mL, partner 4 µg/mL, main component drawn) was 0.388.

In the case of `O=C(O)[C@H]1/C(=C/CO)O[C@@H]2CC(=O)N21` [Clavulanic acid] + CCN(CC)CCOC(=O)c1ccc(N)cc1 [Procaine], the fitness ([1]; first compound 0.5 µg/mL, partner 85.5 µg/mL) was 0.994, the fitness ([1]; first compound 0.5 µg/mL, partner 171 µg/mL) was ≥ 1 and the fitness ([1]; first compound 0.5 µg/mL, partner 342 µg/mL) was ≥ 1. For the same compound, the fitness ([1]; first compound 1 µg/mL, partner 85.5 µg/mL) was 0.957, the fitness ([1]; first compound 1 µg/mL, partner 171 µg/mL) was 0.977 and the fitness ([1]; first compound 1 µg/mL, partner 342 µg/mL) was 0.934. It also gave a fitness ([1]; first compound 2 µg/mL, partner 85.5 µg/mL) of 0.832, a fitness ([1]; first compound 2 µg/mL, partner 171 µg/mL) of 0.912 and a fitness ([1]; first compound 2 µg/mL, partner 342 µg/mL) of 0.795. For the same compound, the fitness ([2]; first compound 1.5 µg/mL, partner 85.5 µg/mL) was 0.876, the fitness ([2]; first compound 1.5 µg/mL, partner 171 µg/mL) was 0.92 and the fitness ([2]; first compound 1.5 µg/mL, partner 342 µg/mL) was 0.902. For the same compound, the fitness ([2]; first compound 3 µg/mL, partner 85.5 µg/mL) was 0.839, the fitness ([2]; first compound 3 µg/mL, partner 171 µg/mL) was 0.831 and the fitness ([2]; first compound 3 µg/mL, partner 342 µg/mL) was 0.795. For the same compound, the fitness ([2]; first compound 6 µg/mL, partner 85.5 µg/mL) was 0.746, the fitness ([2]; first compound 6 µg/mL, partner 171 µg/mL) was 0.739 and the fitness ([2]; first compound 6 µg/mL, partner 342 µg/mL) was 0.672. For the same compound, the fitness ([3]; first compound 0.03125 µg/mL, partner 85.5 µg/mL) was 0.948, the fitness ([3]; first compound 0.03125 µg/mL, partner 171 µg/mL) was 0.929 and the fitness ([3]; first compound 0.03125 µg/mL, partner 342 µg/mL) was 0.963. The fitness ([3]; first compound 0.0625 µg/mL, partner 85.5 µg/mL) was 0.982, the fitness ([3]; first compound 0.0625 µg/mL, partner 171 µg/mL) was ≥ 1 and the fitness ([3]; first compound 0.0625 µg/mL, partner 342 µg/mL) was ≥ 1. The fitness ([3]; first compound 0.125 µg/mL, partner 85.5 µg/mL) was 0.872, the fitness ([3]; first compound 0.125 µg/mL, partner 171 µg/mL) was 0.852 and the fitness ([3]; first compound 0.125 µg/mL, partner 342 µg/mL) was 0.894.

`O=C(O)[C@H]1/C(=C/CO)O[C@@H]2CC(=O)N21` [Clavulanic acid] + O=C(O[C@@H]1Cc2c(O)cc(O)cc2O[C@@H]1c1cc(O)c(O)c(O)c1)c1cc(O)c(O)c(O)c1 [EGCG] gave a fitness ([1]; first compound 0.5 µg/mL, partner 12.5 µg/mL) of 0.958, a fitness ([1]; first compound 0.5 µg/mL, partner 25 µg/mL) of 0.96 and a fitness ([1]; first compound 0.5 µg/mL, partner 50 µg/mL) of 0.939. It also gave a fitness ([1]; first compound 1 µg/mL, partner 12.5 µg/mL) of 0.889, a fitness ([1]; first compound 1 µg/mL, partner 25 µg/mL) of 0.931 and a fitness ([1]; first compound 1 µg/mL, partner 50 µg/mL) of 0.93. It also gave a fitness ([1]; first compound 2 µg/mL, partner 12.5 µg/mL) of 0.817, a fitness ([1]; first compound 2 µg/mL, partner 25 µg/mL) of 0.829 and a fitness ([1]; first compound 2 µg/mL, partner 50 µg/mL) of 0.816. It also gave a fitness ([2]; first compound 1.5 µg/mL, partner 6.25 µg/mL) of 0.884, a fitness ([2]; first compound 3 µg/mL, partner 6.25 µg/mL) of 0.835 and a fitness ([2]; first compound 6 µg/mL, partner 6.25 µg/mL) of 0.715. It also gave a fitness ([2]; first compound 6 µg/mL, partner 25 µg/mL) of 0.272, a fitness ([3]; first compound 0.03125 µg/mL, partner 12.5 µg/mL) of 0.846 and a fitness ([3]; first compound 0.03125 µg/mL, partner 25 µg/mL) of 0.821. For the same compound, the fitness ([3]; first compound 0.03125 µg/mL, partner 50 µg/mL) was 0.75, the fitness ([3]; first compound 0.0625 µg/mL, partner 12.5 µg/mL) was 0.892 and the fitness ([3]; first compound 0.0625 µg/mL, partner 25 µg/mL) was 0.874. It also gave a fitness ([3]; first compound 0.0625 µg/mL, partner 50 µg/mL) of 0.733, a fitness ([3]; first compound 0.125 µg/mL, partner 12.5 µg/mL) of 0.824 and a fitness ([3]; first compound 0.125 µg/mL, partner 25 µg/mL) of 0.812. The fitness ([3]; first compound 0.125 µg/mL, partner 50 µg/mL) was 0.73.
